According to patent US4666897A, “Inhibition of mammalian collagenolytic enzymes by tetracyclines” (Research Foundation of State University, priority 1983, dated 1987):

Key:
[1] = tested on: GCF collagenase and gingival disease in diabetic twins; test: Human gingival crevicular fluid (GCF) study, diabetic twin brothers; type: in vivo; conditions: 7 days of treatment
Procedure: (§1) In a separate study involving humans, gingival crevicular fluid (GCF) samples were collected on filter paper strips inserted into 8 interproximal pockets of selected teeth in the maxillary arch of two twin brothers with juvenile-onset (insulin-dependent) diabetes mellitus. Fluid volume was immediately determined on a modified Periotron (Model 6000, Harco Electronics Ltd., Winnipeg, Canada); then incubated with 10 μl (^3 H-methyl) collagen (20,675 DPM) and 70 μl buffer (50 mM Tris-HCl, pH 7.8, containing 0.2 M sodium chloride and 5 mM calcium chloride). The GCF samples (or reagent blanks or trypsin controls) were incubated at 27° C. for 18 hours with gentle shaking. The reaction was stopped and undigested collagen precipitated by adding 10 μl 0.1 M phenanthroline in dioxane/water (1:1, v/v), 10 μl of nonradioactive methylated carrier collagen (2 mg/ml) in 50 mM Tris-HCl buffer containing 1M NaCl (pH 7.0), and 100 μl dioxane. After mixing, the radiolabeled collagen degradation products were collected by filtration and counted in a liquid scintillation spectrometer (Golub, et. al., 1976, J. Dent. Res., 55, 1049). Using this technique, the reaction blank (no enzyme or GCF added) released about 10% of the total substrate counts; 2-20 ng bacterial collagenase produced a linear increase in the release of radioactive counts from the ^3 H-collagen substrate (the 20 ng level of enzyme degraded 60% of the collagen substrate); and 50 ng trypsin released less than 1% of the counts above blank values. GCF collagenase activity was expressed as units of equivalent activity of vertebrate collagenase (obtained from New England Nuclear, Cat. No. NEK-016); 1 unit was operationally defined as the amount of enzyme that degrades 1 μg of collagen per hour at 27° C.
Four additional GCF samples were collected from other maxillary pockets of the same diabetic twin brothers on filter paper strips, their volume determined (see above), and collagenolytic activity assessed using the same procedure described above but with a different substrate (10 μl of (^3 H-propionate) collagen, NET-660, New England Nuclear Corp., Boston, Mass., 302,000 DPM).
Half of the 12 GCF samples per subject were activated by pretreatment with 1.04 uM trypsin followed by the addition of a 5-fold molar excess of soybean trypsin inhibitor. Samples were selected to be treated or not treated with trypsin by matching them for Gingival Index (Loe and Silness, Acta. Odont. Scand., 21, 533-551 (1967)), GCF flow, and for pocket depth; the clincal parameters (GI, PD) were measured immediately after GCF collection. All measurements were carried out immediately before antibiotic coverage and after 7 days of treatment with either pencillin G (lg. per day; patient three) or the tetracycline minocycline (200 mg/day; patient one).

[2] = tested on: synovial tissue collagenolytic activity; test: Collagenolytic activity in extracts of synovial tissue from patients with rheumatoid arthritis; type: in vivo, human; design: Synovial Tissue Collagenolytic Activity (% C^14-collagen degraded) After Minocycline Treatment / % Reduction by Treatment: concentration or dose not given beside the values
Procedure: In each of three patients, the diseased joint tissue on one side was surgically removed for therapeutic reasons. The three patients were then administered minocycline orally for 10 days and the diseased joint (synovial) tissue on the opposite side was surgically removed (for therapeutic reasons) after the course of minocycline treatment was completed. The tissues were coded, stored frozen, and analyzed double blind to eliminate any bias in the development of the data. The tissues were dried, the lipid removed, and the collagenolytic activity in the diseased joint tissues extracted and concentrated. Aliquots of the extract from each diseased joint were incubated in vitro with radiolabelled collagen fibrils for 72 hours at 37° C. to assess collagen destructive (collagenolytic) enzyme activity.

[3] = during a therapeutic regimen; cited from earlier work
[4] = tested on: GCF collagenase and gingival disease in non-diabetic male; test: Human GCF study, non-diabetic; type: in vivo
Procedure: as §1
[…] PD=4.2 mm±0.3), and GCF collagenolytic activity was measured as described above. […] Two additional GCF samples were collected from the same 4 mm pocket, in this patient, before and after minocycline therapy. These samples were incubated with 10 μl ^3 H-collagen for 18 hours (22° C.), then thermally denatured and the collagen subunits and collagenase digestion products were separated by SDS-polyacrylamide gel electrophoresis (Nicoll, et. al., Experientia., 37, 315-317 (1981)). The gels were processed for fluorography (see Sodek, et. al., J. Periodontal. Res., 16, 425-433 (1981)) and exposed to Kodak X A R-5 film for 3 days.

[5] = penicillin G 1 g per day (P. D.) or minocycline 200 mg/day (K. D.)
[6] = GCF from the same 4 mm pocket before and after therapy

Gram-positive and Gram-negative organisms in the pockets [1, 5]: marked reduction in Gram-negative
SMILES: CN(C)c1ccc(O)c2c1C[C@H]1C[C@H]3[C@H](N(C)C)C(O)=C(C(N)=O)C(=O)[C@@]3(O)C(O)=C1C2=O [minocycline, Minocycline]
GCF flow [1, 5]: significant reductions
active GCF collagenase [1, 5]: significant reductions
pocket depth [1, 5]: no decrease
total GCF collagenase (after trypsin pretreatment) [1, 5]: significant reductions
Gingival Index (G. I.) ([1]; penicillin G 1 g per day (patient three) or minocycline 200 mg/day (patient one)): significant reductions
% Reduction by Treatment ([2]; Patient #1): 81.8%
Synovial Tissue Collagenolytic Activity (% C^14-collagen degraded) After Minocycline Treatment ([2]; Patient #1, oral for 10 days, before treatment 43.0): 7.8%
% Reduction by Treatment ([2]; Patient #2): 68.8%
Synovial Tissue Collagenolytic Activity (% C^14-collagen degraded) After Minocycline Treatment ([2]; Patient #2, oral for 10 days, before treatment 41.0): 12.8%
% Reduction by Treatment ([2]; Patient #3): did not reduce collagenolytic activity much further
Synovial Tissue Collagenolytic Activity (% C^14-collagen degraded) After Minocycline Treatment ([2]; Patient #3, oral for 10 days, before treatment 18.6): 18.0%
% Reduction by Treatment ([2]; Patient #3, listed as Minocycline): 3.3%
reduction of synovial collagenolytic enzyme activity ([2]; patients #1 and 2 (high level of activity)): 69-82%
concentration in human serum [3]: approximately 2 ug/ml
concentration in the gingival crevicular fluid relative to serum [3]: 4-5 times greater
densitometric analysis of fluorographs: degradation products ([4]; GCF before and after therapy): reduced the percentage of the total radiolabeled collagenous material present as degradation products
breakdown of intact ^3 H-collagen by GCF (SDS-PAGE fluorography) [4, 6]: reduced the breakdown of the intact collagen
production of α^A and α^B collagen digestion fragments by GCF (fluorography) [4, 6]: inhibited the production
pocket depth ([4]; non-diabetic patient two): essentially unchanged
reduction of G. I. ([4]; non-diabetic patient two): 26%
reduction of GCF flow ([4]; non-diabetic patient two): 71%
reduction of trypsin-activated collagenase in GCF ([4]; non-diabetic patient two): 59%
reduction of active collagenase in GCF ([4]; non-diabetic patient two, minocycline therapy as in (a)): 86%
